Our source for the EC50, half-life and IC50 values is ChEMBL document CHEMBL1136424, “Novel selective small molecule agonists for peroxisome proliferator-activated receptor delta (PPARdelta)--synthesis and biological activity” (Bioorg Med Chem Lett, 2003).

For series [1], the target named is T1, Peroxisome proliferator-activated receptor alpha (Homo sapiens, UniProt Q07869).
T1 sequence (Q07869 whole entry): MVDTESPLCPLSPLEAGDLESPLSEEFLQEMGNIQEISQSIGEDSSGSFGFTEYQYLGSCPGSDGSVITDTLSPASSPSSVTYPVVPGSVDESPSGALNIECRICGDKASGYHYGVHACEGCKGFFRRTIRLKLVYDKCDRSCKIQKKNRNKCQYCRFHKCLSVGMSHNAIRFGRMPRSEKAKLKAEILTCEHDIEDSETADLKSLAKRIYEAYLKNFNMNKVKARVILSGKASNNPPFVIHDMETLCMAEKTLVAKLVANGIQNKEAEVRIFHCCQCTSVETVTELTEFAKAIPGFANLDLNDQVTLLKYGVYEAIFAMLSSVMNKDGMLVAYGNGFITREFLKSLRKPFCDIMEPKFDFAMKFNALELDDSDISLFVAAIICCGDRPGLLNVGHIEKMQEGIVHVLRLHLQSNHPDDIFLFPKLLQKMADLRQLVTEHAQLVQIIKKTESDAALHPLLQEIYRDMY
The experiment in a line: Maximum transcriptional activation of human PPAR alpha receptor.

Series [2] addresses T2, Peroxisome proliferator-activated receptor gamma (Homo sapiens, UniProt P37231).
T2 sequence (P37231 whole entry): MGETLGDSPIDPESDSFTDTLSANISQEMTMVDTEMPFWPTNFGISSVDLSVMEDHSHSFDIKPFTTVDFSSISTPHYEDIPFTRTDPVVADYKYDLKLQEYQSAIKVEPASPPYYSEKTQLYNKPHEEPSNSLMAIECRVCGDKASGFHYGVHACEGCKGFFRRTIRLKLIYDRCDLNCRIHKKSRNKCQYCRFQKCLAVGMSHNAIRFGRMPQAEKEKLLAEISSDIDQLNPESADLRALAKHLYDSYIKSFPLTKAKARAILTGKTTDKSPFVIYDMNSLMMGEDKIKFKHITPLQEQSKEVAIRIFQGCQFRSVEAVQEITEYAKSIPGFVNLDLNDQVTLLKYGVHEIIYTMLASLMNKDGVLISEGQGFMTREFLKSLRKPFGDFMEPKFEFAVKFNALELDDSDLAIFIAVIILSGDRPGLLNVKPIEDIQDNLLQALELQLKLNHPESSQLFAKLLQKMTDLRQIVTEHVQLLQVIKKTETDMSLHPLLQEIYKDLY
Kind of series: Maximum transcriptional activation of human PPAR gamma receptor.

Series [3] is described as follows: Half-life was measured in mice. Type of series: ADME, organism-based. Conditions: mouse, in vivo; call rule not given here.
The target of series [4] is T3, Peroxisome proliferator-activated receptor delta (Homo sapiens, UniProt Q03181).
T3 sequence (Q03181 whole entry): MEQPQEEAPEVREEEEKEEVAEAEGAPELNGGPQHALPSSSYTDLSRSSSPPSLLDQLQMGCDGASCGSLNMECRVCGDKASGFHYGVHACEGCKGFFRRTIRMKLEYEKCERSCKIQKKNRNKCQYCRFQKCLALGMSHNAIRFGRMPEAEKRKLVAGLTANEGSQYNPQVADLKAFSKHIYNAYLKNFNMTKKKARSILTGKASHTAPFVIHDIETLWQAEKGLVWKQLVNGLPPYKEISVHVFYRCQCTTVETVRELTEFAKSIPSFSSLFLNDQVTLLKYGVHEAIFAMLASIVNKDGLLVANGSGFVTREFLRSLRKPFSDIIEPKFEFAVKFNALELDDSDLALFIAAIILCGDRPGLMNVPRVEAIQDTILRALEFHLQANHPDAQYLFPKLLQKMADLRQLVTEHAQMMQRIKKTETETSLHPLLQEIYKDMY
Kind of series: Maximum transcriptional activation of human PPAR delta receptor.

For series [5], the target named is T3, Peroxisome proliferator-activated receptor delta. Kind of series: Binding affinity for human PPAR delta receptor.
The target of series [6] is T2, Peroxisome proliferator-activated receptor gamma. The experiment in a line: Maximum transcriptional activation of human PPAR gamma receptor; IA=inactive.
Series [7] has as its target T1, Peroxisome proliferator-activated receptor alpha. The experiment in a line: Maximum transcriptional activation of human PPAR alpha receptor; IA=inactive.
Series [8] concerns the target T4, Peroxisome proliferator-activated receptor gamma (Mus musculus, UniProt P37238).
T4 sequence (P37238 whole entry): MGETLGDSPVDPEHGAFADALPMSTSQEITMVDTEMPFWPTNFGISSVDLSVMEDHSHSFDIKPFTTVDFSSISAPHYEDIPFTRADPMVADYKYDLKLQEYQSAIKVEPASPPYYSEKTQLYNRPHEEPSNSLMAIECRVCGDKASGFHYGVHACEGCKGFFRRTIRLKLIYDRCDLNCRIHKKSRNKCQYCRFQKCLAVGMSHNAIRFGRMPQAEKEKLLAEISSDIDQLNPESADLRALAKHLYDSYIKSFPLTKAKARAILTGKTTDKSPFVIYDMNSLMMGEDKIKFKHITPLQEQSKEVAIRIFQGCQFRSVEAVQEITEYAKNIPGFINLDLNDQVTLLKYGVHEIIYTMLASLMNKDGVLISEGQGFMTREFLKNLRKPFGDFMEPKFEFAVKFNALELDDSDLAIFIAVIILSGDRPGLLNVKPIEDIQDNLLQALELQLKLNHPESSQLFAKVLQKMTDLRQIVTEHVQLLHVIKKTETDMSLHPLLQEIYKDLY
The experiment in a line: Activity against murine PPAR gamma receptor.

Regarding `Cc1nc(-c2ccc(C(F)(F)F)cc2)oc1COc1ccc(CCC(=O)O)cc1`, the figures for the EC50 in series [1], in series [2] and in series [4] were 280 nM, 3.3 µM and 60 nM, respectively. The half-life in series [3] was less than 10 min. In series [5], the IC50 amounted to 90 nM.

As to `Cc1cc(OCc2sc(-c3ccc(C(F)(F)F)cc3)nc2C)ccc1CCC(=O)O`, the EC50 in series [1] was determined as 1700 nM; in series [2] it was 4.2 µM; in series [4], 30 nM. The compound also had an IC50 in series [5] of 60 nM.

On to `Cc1nc(-c2ccc(C(F)(F)F)cc2)oc1COc1ccc(C(=O)O)cc1`, for which the EC50 is 5900 nM in series [4], “Not Active” in series [6] and “Not Active” in series [7]. The IC50 in series [5] amounted to 5500 nM.

`Cc1cc(OCc2sc(-c3ccc(C(F)(F)F)cc3)nc2C)ccc1/C=C/C(=O)O`: the values for the EC50 in series [1], in series [2] and in series [4] were 3200 nM, 2.7 µM and 20 nM, respectively. The IC50 in series [5] amounted to 1000 nM.

Consider `Cc1cc(SCc2oc(-c3ccc(C(F)(F)F)cc3)nc2C)ccc1OCC(=O)O`, for which the EC50 amounted to 2500 nM in series [1], 1.61 µM in series [2] and 10 nM in series [4]. In series [5], this compound yielded an IC50 of 3 nM.

Regarding `Cc1nc(-c2ccc(C(F)(F)F)cc2)sc1COc1ccc(CCC(=O)O)cc1`, the figures for the EC50 in series [1], in series [2] and in series [4] were 3000 nM, 7.04 µM and 90 nM, respectively. This compound had an IC50 in series [5] of 30 nM.

As for `Cc1nc(-c2ccc(C(F)(F)F)cc2)sc1COc1ccc(CC(=O)O)cc1`, the EC50 is 6900 nM in series [1], 7.9 µM in series [2] and 1900 nM in series [4]. This compound showed an IC50 in series [5] of 1000 nM.

With `Cc1nc(-c2ccc(C(F)(F)F)cc2)oc1CSc1ccc(OCC(=O)O)cc1`, the EC50 in series [2] is 6.4 µM; in series [4], 420 nM; in series [7], “Not Active”. Further, the IC50 in series [5] came to 90 nM.

In the case of `Cc1cc(OCc2oc(-c3ccc(C(F)(F)F)cc3)nc2C)ccc1OCC(=O)O`, the values for the EC50 in series [1], in series [4] and in series [6] were 3200 nM, 30 nM and “Not Active”, respectively. Besides, in series [5], the IC50 is 30 nM.

On to `Cc1nc(-c2ccc(C(F)(F)F)cc2)oc1COc1ccc(OCC(=O)O)cc1`, for which the EC50 in series [2] was 9.8 µM; in series [4] it was 470 nM; in series [7], “Not Active”. Besides, the IC50 in series [5] is 340 nM.

For the compound `Cc1cc(SCc2sc(-c3ccc(C(F)(F)F)c(F)c3)nc2C)ccc1OCC(=O)O`, the values for the EC50 in series [1], in series [2] and in series [8] were 1100 nM, 2 µM and greater than 10 µM, respectively.
